Measurements published in patent publication US12409206B2, “Use of cyclosporine analogues for treating fibrosis” (Hepion Pharmaceuticals, Inc., priority 2020, dated 2025).

How the values were obtained:
[1] = tested on: Human Lung Fibroblasts from a Patient with Idiopathic Pulmonary Fibrosis (IPF); experiment: Procollagen and fibronectin ELISA of spent medium, IPF lung fibroblast culture; format: cell-based; details: 6 days, both in the absence or presence of 0.4 ng/ml TGFβ
Protocol: (§1) Human Lung Fibroblasts from a Patient with Idiopathic Pulmonary Fibrosis (IPF) (Lonza Bioscience, Cat. #CC-7231) were cultured in 96-well plates. Treatments were applied in triplicate wells (applied 100 ul treatments per well) for 6 days. Cells were near confluence at the start of treatments. […] Spent culture medium collected at the end of the treatments was assayed for procollagen and fibronectin by enzyme-linked immunosorbent assays (ELISA) (Procollagen ELISA antibody pair (ab216064) and fibronectin ELISA antibody pair (ab222262) from Abcam). Procollagen and fibronectin were not detected in medium not applied to cells. Procollagen and fibronectin levels in the medium are represented by means±SD (bars) from 3 replicate wells (open circles).

[2] = tested on: Human adult dermal fibroblasts; experiment: Procollagen and fibronectin ELISA of spent medium, dermal fibroblast culture; format: cell-based; details: medium from Day 1-2 of treatment, in the absence or presence of 10 ng/ml EGF or 0.4 ng/ml TGFβ
Protocol: as §1, with “adult dermal fibroblasts” for “Lung Fibroblasts from a Patient with Idiopathic Pulmonary Fibrosis (IPF)”, “#CC-2511)” for “#CC-7231)”, “1 day, then re-applied for one additional day.” for “6 days.”, “from Day 1-2” for “at the end”, “treatment” for “the treatments”, “circles). […].” for “circles).”

[3] = tested on: mouse unilateral ureteral obstruction (UUO) model of kidney fibrosis; experiment: Mouse unilateral ureteral obstruction (UUO) model of kidney fibrosis, Sirius red; format: in vivo, C57BL/6 mice; details: 50 mg/kg/day daily oral gavage for 13 days; vs vehicle; per-section and per-animal; one-way ANOVA with Tukey
Protocol: This example describes a study conducted in the mouse unilateral ureteral obstruction (UUO) model of kidney fibrosis. Seven-week-old female C57BL/6 mice were used in this study (n=8 mice per group). Sham group mice received no UUO. The remaining mice underwent complete surgical ligation of the left ureter. Vehicle and CRV431 at 50 mg/kg/day were administered by daily oral gavage for 13 days starting on the day of surgery. Mice were sacrificed on Day 14, and left kidneys were processed histologically and stained for fibrotic collagen with Sirius red. The percentage of each histological section with Sirius red staining was measured morphometrically in 5 sections from each kidney. Results are shown in FIG. 7A (showing Sirius red in individual tissue sections) and 7B (showing Sirius red in individual mice (5 tissue sections per mouse)).

[4] = tested on: human precision cut liver slices (PCLS); experiment: PCLS Sirius red tissue fibrosis, Stimulation Protocol (TGFβ+PDGF-BB); format: cell-based; details: compared with other NASH drug candidates
Protocol: PCLS were obtained from 5 human donors who underwent resection of liver cancer. Replicate slices were collected from healthy margins of the resections and cultured for 4 or 6 days depending on the experimental protocol. In the Nonstimulation Protocol slices were cultured for 6 days and treated for the entire period with DMSO vehicle or 5 μM CRV431. In the Stimulation Protocol slices were rested for 1 day and then administered the cytokines, TGFβ and PDGF-BB, for 3 days to stimulate inflammation and fibrosis. […]
Four types of evaluations were conducted on the PCLS: (a) secretion of inflammation and fibrosis biomarkers into the culture medium, (b) histological staining and quantitation of Sirius red as a measure of tissue fibrosis, (c) gene expression of inflammation and fibrosis biomarkers by RT-PCR, and (d) RNA sequencing (RNA-Seq) of the complete transcriptome. […] ELISAs were used to quantify secretion of monocyte chemoattractant protein (MCP-1), interleukin-6 (IL-6), tissue inhibitor of metalloproteinase-1 (TIMP1), hyaluronic acid, fibronectin, and collagen 1α1. For each donor the mean level of biomarker secretion in each treatment group was expressed as a percentage change relative to DMSO vehicle, the percentages averaged for all donors, and finally the mean daily percentage change calculated from all days of evaluation. […]

[5] = tested on: human precision cut liver slices (PCLS); experiment: PCLS gene expression by RT-PCR; format: cell-based
Protocol: PCLS were obtained from 5 human donors who underwent resection of liver cancer. Replicate slices were collected from healthy margins of the resections and cultured for 4 or 6 days depending on the experimental protocol. In the Nonstimulation Protocol slices were cultured for 6 days and treated for the entire period with DMSO vehicle or 5 μM CRV431. In the Stimulation Protocol slices were rested for 1 day and then administered the cytokines, TGFβ and PDGF-BB, for 3 days to stimulate inflammation and fibrosis. DMSO vehicle, CRV431 (1 and 5 μM), Alk5i (10 μM), obeticholic acid (5 μM), elafibranor (5 μM), resmetirom ([…]), and Aramchol (5 μM) were administered individually as drug treatments in the Stimulation Protocol concurrent with TGFβ+PDGF-BB. Culture medium treatments were replaced daily.
Four types of evaluations were conducted on the PCLS: (a) secretion of inflammation and fibrosis biomarkers into the culture medium, (b) histological staining and quantitation of Sirius red as a measure of tissue fibrosis, (c) gene expression of inflammation and fibrosis biomarkers by RT-PCR, and (d) RNA sequencing (RNA-Seq) of the complete transcriptome. Each of the four types of evaluation is described below: • (a) Biomarker secretion. Spent culture medium was collected daily from duplicate slices for each treatment. ELISAs were used to quantify secretion of monocyte chemoattractant protein (MCP-1), interleukin-6 (IL-6), tissue inhibitor of metalloproteinase-1 (TIMP1), hyaluronic acid, fibronectin, and collagen 1α1. For each donor the mean level of biomarker secretion in each treatment group was expressed as a percentage change relative to DMSO vehicle, the percentages averaged for all donors, and finally the mean daily percentage change calculated from all days of evaluation. […] Sirius red was quantified morphometrically in the histological sections as the percentage area with Sirius red staining in 10 sections from each treatment. In the Nonstimulation Protocol the quantity of Sirius red staining was expressed relative to the vehicle group. In the Stimulation Protocol the quantity of Sirius red staining was expressed relative to nonstimulated PCLS (0%) and TGFβ+PDGF-BB-stimulated+vehicle PCLS (100%). […] RNA was isolated from duplicate liver slices per treatment at the end of the experiments and evaluated by RT-PCR for 5 markers of inflammation and fibrosis: MCP-1, IL-6, TIMP1, αSMA, and collagen 1α1. β actin was used as a reference gene to calculate relative levels of each target gene RNA. […] RNA sequencing of the complete transcriptome (30 million reads per sample) was conducted on vehicle and 5 μM CRV431 treatment groups from 3 donors both from the Nonstimulation and Stimulation Protocols. […]

hepatitis B = details: preclinical studies; cited from earlier work
liver = details: a number of in vivo models; cited from earlier work
[6] = tested on: experimental models of NASH; details: cited from earlier work

Compound: CC[C@@H]1NC(=O)[C@H]([C@H](O)[C@H](C)CCCCCCNC(C)=O)N(C)C(=O)[C@H](C(C)C)N(C)C(=O)[C@H](CC(C)C)N(C)C(=O)[C@H](CC(C)C)N(C)C(=O)[C@@H](C)NC(=O)[C@H](C)NC(=O)[C@H](CC(C)C)N(C)C(=O)[C@H](C(C)C)NC(=O)[C@H](CC(C)C)N(C)C(=O)[C@@H](C)N(C)C1=O [CRV431]
- abundance of fibronectin in the medium [1]: dose-dependently decreased
- abundance of procollagen in the medium [1]: dose-dependently decreased
- abundance of fibronectin in the medium [2]: dose-dependently decreased
- abundance of procollagen in the medium [2]: dose-dependently decreased
- Sirius red staining (fibrotic collagen) of left kidney [3]: statistically significant decrease
- preventing TGFβ+PDGF-BB-induced tissue fibrosis [4]: most effective of five NASH drug candidates
- gene expression of all markers ([5]; CRV431 applied at 5 μM, markers MCP-1, IL-6, TIMP1, αSMA, collagen 1α1): decreased
- RNA levels of collagen1α1, αSMA, TIMP1, IL-6, and MCP-1 ([5]; qRT-PCR): reductions in RNA levels
- anti-viral activity (hepatitis B): shows anti-viral activity
- anti-fibrotic activity in the liver (liver): anti-fibrotic activity
- hepatocellular carcinoma tumor burden [6]: can reduce
- liver fibrosis arising from non-alcoholic steatohepatitis [6]: can reduce
